Measured values as given in PMC9500755, “Albumin-Mediated Size Exclusion Chromatography: The Apparent Molecular Weight of PSMA Radioligands as Novel Parameter to Estimate Their Blood Clearance Kinetics” (Pharmaceuticals, 2022).

Legend:
[1] = biological target: T1, human serum albumin (HSA) (Homo sapiens, UniProt P02768); test: Albumin-mediated size exclusion chromatography (AMSEC); type: in vitro ADME; conditions: for tR,AMSEC (retention time in AMSEC run): 177Lu-labeled ligand, mobile phase 700 µM HSA in PBS pH 7.4, Superdex 75 Increase, corrected for detector offset, normalized to column 1; for Retention factor k: fraction of time the radioligand is complexed to HSA during the AMSEC run, Equation (2); for MWapp,raw (raw apparent molecular weight): from tR,AMSEC by column calibration, 700 µM HSA in PBS pH 7.4; for MWapp,norm. (normalized apparent molecular weight): from tR,norm. by column calibration; for tR,norm. (normalized retention time): normalized with tR,blank, tR,HSA and tR,acetone, Equation (5)
T1 construct: purchased Biowest, Nuaillé, France
T1 sequence (P02768 25-609): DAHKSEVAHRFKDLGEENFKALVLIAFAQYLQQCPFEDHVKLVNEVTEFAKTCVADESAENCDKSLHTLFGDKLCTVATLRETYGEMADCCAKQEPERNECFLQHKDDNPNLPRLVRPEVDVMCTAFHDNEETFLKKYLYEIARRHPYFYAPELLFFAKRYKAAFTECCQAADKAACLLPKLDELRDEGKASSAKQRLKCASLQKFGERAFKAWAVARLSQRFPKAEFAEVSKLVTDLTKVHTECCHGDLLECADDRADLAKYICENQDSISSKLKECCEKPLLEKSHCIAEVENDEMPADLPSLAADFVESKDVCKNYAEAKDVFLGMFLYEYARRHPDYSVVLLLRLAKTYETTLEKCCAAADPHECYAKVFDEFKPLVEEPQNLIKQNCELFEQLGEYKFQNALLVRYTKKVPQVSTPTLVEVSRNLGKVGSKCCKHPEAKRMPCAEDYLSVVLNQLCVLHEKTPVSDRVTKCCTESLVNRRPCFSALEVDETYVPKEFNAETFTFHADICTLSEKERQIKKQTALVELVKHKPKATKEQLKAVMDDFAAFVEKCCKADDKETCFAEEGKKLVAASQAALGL
Experimental: All size exclusion chromatographic (SEC) experiments were carried out using the above-mentioned HPLC system equipped with a Superdex 75 Increase 10/300 GL gel filtration size exclusion column (fractionation range 70–3 kDa, GE Healthcare, Uppsala, Sweden). Eluents at room temperature, a constant flow rate of 0.8 mL/min, and an acquisition time of 35 min were generally applied. The column was calibrated as recommended by the manufacturer using a commercially available set of proteins (Gel Filtration LMW Calibration Kit, GE Healthcare, Buckinghamshire, UK). Retention times of calibration proteins and calculated calibration parameters are given in the Supplementary Materials (Table S3). UV signal detection occurred at 280 nm.
All retention times of radio signals were corrected for the offset between the UV-vis detector and radio-detector (Δt = 0.084 min). Throughout the development of the AMSEC method, three gel filtration columns of the same type were used for experiments (most data were acquired using column 1). As calculations were based on absolute empirical retention times that inherently differed slightly from column to column, all retention times determined on column 2 and column 3 were mathematically converted to an equivalent retention time on column 1 using the columns’ calibration parameters. A detailed description of these calculations is provided in the Supplementary Materials.
All numerical retention times explicitly given in running text or tables and plotted in diagrams are already corrected for the offset between UV-vis and radio-detector and, if initially determined on columns 2 or 3, converted to the equivalent retention time on column 1 (for detailed information, see Equations (S1) and (S2) and Table S1 in the Supplementary Materials).
AMSEC runs were executed with a solution of HSA (Biowest, Nuaillé, France) in PBS (pH 7.4) at physiological concentration (700 µM) as a mobile phase. Upon injection of approximately 1.0 MBq (5–10 µL) of a radioligand, the elution profile was monitored via radioactivity detection, and the retention times of observed radiopeaks (tR,AMSEC) were determined via semi-automated peak integration. By means of calibration, retention times were translated into a ligand-specific raw apparent molecular weight (MWapp,raw) as a parameter to assess the extent of HSA binding (for calculation, see Equation (S6) in the Supplementary Materials). rhPSMA-7.3 served as an internal standard during AMSEC studies and was co-evaluated whenever new data were collected to assess the reproducibility of the method (n = 14).
For reference purposes, conventional SEC runs of HSA (100 µL, 3 mg/mL) and acetone (100 µL, 2% in PBS pH 7.4) with PBS (pH 7.4) as a mobile phase were executed. The retention time of HSA (tR,HSA) corresponded to the maximal MWapp,raw, theoretically observable in AMSEC runs in the case of continuous binding of a radioligand to HSA (equivalent to 100% HSA binding). The retention time of acetone (tR,acetone) served as a reference for a ligand with no interaction with HSA in AMSEC runs (equivalent to 0% HSA binding) and an actual physical molecular weight below the column fractionation range (this was the case for all investigated radioligands).
MWapp,raw values determined as described in Section 3.3.1. were normalized in order to account for ligand-specific influences on experimentally determined retention times and to establish quantitative comparability of the obtained MWapp,norm. values. The normalization was based on a SEC run (referred to as blank run) of a radioligand executed in analogy to the AMSEC run but using PBS (pH 7.4) without HSA as a mobile phase. The determined retention time tR,blank, together with the retention time tR,AMSEC from the AMSEC run, tR,HSA, and tR,acetone determined in Section 3.3.1, were used to calculate a normalized retention time tR,norm. for every radioligand (for formulae and details on the calculation, see Section 2. Results and Discussion). […]

[2] = Calculated glomerular sieving coefficients (GSCcalc) from MWapp,norm.; conditions: from MWapp,norm. via sigmoidal fit of MW vs GSC of 12 human plasma proteins
Text: Therefore, when comparing the MWapp,norm. of different radioligands, not only their relative difference but also the absolute values of MWapp,norm. are of importance. […] These GSCcalc determined for all the PSMA radioligands (Table 2, Figure 5) inherently account for the exponential nature of the relationship between their albumin-mediated MWapp,norm. and MW-dependent GF and could, therefore, be a useful parameter to estimate differences in blood clearance by means of GF. The GSC is defined as the ratio of a compound’s concentration in the glomerular filtrate to that in the blood; thus, a GSC of 1 represents unhindered filtration through the capillary membrane in the glomerulus, while a lower GSC corresponds to a restricted filtration and, thus, a prolonged circulatory half-life. […] As an example, a GSCcalc of 0.408 was determined for rhPSMA-7.3, while an almost three-fold smaller GSCcalc of 0.138 was determined for rhPSMA-7.4. […] This would constitute a dramatic physiological effect that, in its extent, could not be predicted only based on subtle differences in molecular structure and other conventionally determined in vitro parameters. We, therefore, believe that the MWapp,norm. and GSCcalc obtained by AMSEC could be important parameters that, already at the preclinical stage of development, could help in the selection of promising therapeutic radioligands with pharmacokinetic profiles suitable for patient application.
A sigmoidal fit of molecular weights (MWs, in kDa) and corresponding glomerular sieving coefficients (GSCs) of 12 human plasma proteins (data taken from Norden et al.) was executed using OriginPro software. A dose-response model based on Equation (6) was applied:(6) GSC=A1+A2−A1/1+10^(LOGx0−MW)·p.
The values of bottom asymptote A1 and top asymptote A2 were set to 4.2∙10^−5 (GSC of IgG, data taken from Norden et al.) and 1 (equaling complete sieving), respectively. Curve fitting gave the center parameter LOGx0 = 19.36833 and the Hill slope p = −0.12108. GSCcalc values were calculated via implementation of fitting parameters and the experimentally determined MWapp,norm. in Equation (6).

[3] = design: method as in PMID 26985056; conditions: 177Lu-labeled; cited from earlier work
[4] = design: method as in PMID 30105912, PMID 29684274; conditions: 177Lu-labeled, mice; cited from earlier work
[5] = design: method as in PMID 35086894; conditions: head-to-head with four isomers of rhPSMA-7 and rhPSMA-10.2; cited from earlier work

Structure (SMILES) | tR,AMSEC (retention time in AMSEC run) [1] | Retention factor k [1] | MWapp,raw (raw apparent molecular weight) [1] | MWapp,norm. (normalized apparent molecular weight) [1] | tR,norm. (normalized retention time) [1] | GSCcalc (calculated glomerular sieving coefficient) [2] | blood clearance [3] | therapeutic efficacy compared to PSMA-617 [4] | MWapp,norm. higher than that of the stereoisomer ([1]; rhPSMA-7.2 vs rhPSMA-7.1, rhPSMA-10.1 vs rhPSMA-10.2) | blood clearance in mice [5]
O=C(O)CC[C@H](NC(=O)N[C@@H](CCCCNC(=O)[C@H](Cc1ccc2ccccc2c1)NC(=O)[C@H]1CC[C@H](CNC(=O)CN2CCN(CC(=O)O)CCN(CC(=O)O)CCN(CC(=O)O)CC2)CC1)C(=O)O)C(=O)O (177Lu complex, metal not drawn) [PSMA-617, reference compound] | 17.586 min | 0.447 | 13.8 kDa | 9.4 kDa | 18.988 min | 0.942 | rapid, bi-phasic blood clearance |  |  | 
Cc1ccc(CCCC(=O)NCCCC[C@H](NC(=O)CN2CCN(CC(=O)O)CCN(CC(=O)O)CCN(CC(=O)O)CC2)C(=O)NCC2CCC(C(=O)N[C@@H](Cc3ccc4ccccc4c3)C(=O)NCCCC[C@H](NC(=O)N[C@@H](CCC(=O)O)C(=O)O)C(=O)O)CC2)cc1 (stereo partly shown) (177Lu complex, metal not drawn) [PSMA-ALB-56] |  |  |  |  |  |  |  | superior therapeutic efficacy |  | 
CC(C)(C)[Si](F)(c1ccc(C(=O)NC[C@@H](NC(=O)CN2CCN(CC(=O)[O-])CCN(CC(=O)[O-])CCN(CC(=O)[O-])CC2)C(=O)N[C@H](CCCCNC(=O)CCC(=O)NCCC[C@@H](NC(=O)CC[C@H](NC(=O)N[C@@H](CCC(=O)O)C(=O)O)C(=O)O)C(=O)O)C(=O)O)cc1)C(C)(C)C.[177Lu+3] [rhPSMA-10.1] | 15.410 min | 0.616 | 25.3 kDa | 17.2 kDa | 16.789 min | 0.644 |  |  | 30% | fast blood clearance
